According to patent US20060141546A1, “Bacterial test method by glycated label binding” (priority 2002, published 2006):

What was measured:
bacteria [1] = experiment: Effect of divalent cations on ALP binding to bacteria (Example 7, Table 5, FIG. 12); conditions: for O.D. at 405 nm, With ALP: bacteria plus cation (CaCl2 1 mM, MgCl2 1 mM, ZnCl2 0.2 mM) with ALP; for O.D. at 405 nm, No ALP: bacteria plus cation (CaCl2 1 mM, MgCl2 1 mM, ZnCl2 0.2 mM)
Method: Bacterial cells (1 to 4.5×10^7 cells/mL) were washed twice with water after centrifugation to separate cells into a packed pellet from the supernatant liquid. The washed cells in pellet form were suspended in 20 μL of EPPS buffer (50 mM at pH 8.0) and 30 μL of water. […]
(§1) The mixture of glycated protein and bacterial cells was left at 25° C. for 15 minutes. The mixture was then centrifuged at 30,000 rpm for 30 minutes after which the bacterial cells formed a pellet at the bottom of the tube and were washed with water 4-5 times (50 μL). Centrifugation allows separation of glycoprotein bound to the bacteria cells from unbound glycated protein(s).
After washing, the bacterial pellets were suspended in 50 μL of borate buffer (25 mM at pH 9.0). A 5 μL aliquot of the suspension was assayed for detection of ALP binding by adding 5 μL of para-nitrophenol phosphate (PNPP, 100 mM), 50 μL sodium borate buffer (25 mM at pH 9.0) and 140 μL of water. […] The color was read at 405 nm using an ELISA plate reader between 15-30 min; the absorbance is directly proportional to the amount of ALP bound to the bacteria cell.

S. faec. [2] = experiment: ALP binding to bacteria in presence of carbohydrates, polysaccharides, glycopeptides and lectins (Example 5, Table 3); conditions: ALP 100 mUnits plus 15 μg of additive
Method: (§2) Bacterial cells (1 to 4.5×10^7 cells/mL) were washed twice with water after centrifugation to separate cells into a packed pellet from the supernatant liquid. The washed cells in pellet form were suspended in 20 μl of EPPS buffer (50 mM at pH 8.0) and 30 μL of water. Hemoglobin (20 μg) was added as a blocking additive. Alkaline phosphatase (ALP) (100 mUnits) from bovine intestine and 15 μg of simple carbohydrates or proteoglycan or lectins, were added.
as §1
(§3) After washing, the bacterial pellets were suspended in 50 μL of sodium tetraborate buffer (25 mM at pH 9.5). A 5 uL aliquot of the suspension was assayed for detection of ALP binding by adding 5 μL of para-nitrophenol phosphate (PNPP, 100 mM), 50 μL sodium borate buffer (25 mM at pH 9.0) and 140 μL of water. […] The color is read at 405 nm using a ELISA plate reader between 15-30 min and the absorbance is directly proportional to the amount of ALP bound to the bacteria cell adhesions for glycated groups.

E. coli [3] = experiment: as above; conditions: ALP 100 mUnits plus 15 μg of additive
Method: as §2, §1, §3

bacteria [4] = experiment: Competitive inhibition of ALP binding to bacteria (Example 3)
Method: (§4) Less than 20% was no inhibition (NI) and greater than 90% was complete inhibition (CI) with a binding constant great than ALP.
(§5) Bacterial cells (1 to 4.5×10^7 cells/mL) were washed twice with water after centrifugation to separate cells into a packed pellet from the supernatant liquid. The washed cells in pellet form were suspended in 20 ul of N-2-hydroxyethyl piperazine-N′-[3-propane sulfonic acid] EPPS buffer (50 mM at pH 8.0) and 30 μL of water. Glycated protein(s) (2-40 μg) were added. In some cases a glycated protein (2-40 μg) and bovine intestinal alkaline phosphatase (ALP) (2 μg or […]) were added and the binding of the glycated protein measured by the reduction of binding of ALP.
as §1
as §3, with “borate” for “sodium tetraborate”, “9.0).” for “9.5).”, “μL” for “uL”, “min. The” for “min and the”
(§6) Only a protein binding to the cell adhesions for glycated groups causes the inhibition of the binding of ALP by bacteria. A protein binding to the cell adhesions for glycated groups provides a positive number in Table 2.

S. faec. [5] = experiment: Competitive inhibition of ALP binding to bacteria by added protein (Example 3, Table 2); conditions: protein 2-40 μg added with ALP 2 μg
Method: as §4, §5, §1
as §3, with “borate” for “sodium tetraborate”, “9.0).” for “9.5).”, “μL” for “uL”, “min. The” for “min and the”
as §6

E. coli [6] = experiment: as above; conditions: protein 2-40 μg added with ALP 2 μg
Method: as §4, §5, §1
as §3, with “borate” for “sodium tetraborate”, “9.0).” for “9.5).”, “μL” for “uL”, “min. The” for “min and the”
as §6

## [Ca+2].[Cl-].[Cl-] [CaCl2]
Bacteria [1]
  O.D. at 405 nm, With ALP: 0.36 O.D.
  O.D. at 405 nm, No ALP: 0.23 O.D.

## C[C@H](O)[C@@H](O)[C@@H](O)[C@H](O)C=O [Fucose]
S. faec. [2]
  absorbance (405 nm) of ALP bound to bacteria: 2.3
E. coli [3]
  absorbance (405 nm) of ALP bound to bacteria: 2.0

## CC(=O)N[C@@H]1[C@@H](O)[C@@H](O)[C@@H](CO)O[C@H]1O [GalNAc, N-Acetyl-β-D-Galactosamine]
S. faec. [2]
  absorbance (405 nm) of ALP bound to bacteria: 1.9
E. coli [3]
  absorbance (405 nm) of ALP bound to bacteria: 1.8

## CC(=O)N[C@@H]1[C@@H](O)[C@H](O)[C@@H](CO)O[C@H]1O [GlcNAc, N-Acetyl-β-D-Glucosamine]
S. faec. [2]
  absorbance (405 nm) of ALP bound to bacteria: 2.0
E. coli [3]
  absorbance (405 nm) of ALP bound to bacteria: 2.0

## O=C[C@H](O)[C@@H](O)[C@H](O)[C@H](O)C(=O)O [Glucuronic acid]
S. faec. [2]
  absorbance (405 nm) of ALP bound to bacteria: 2.0
E. coli [3]
  absorbance (405 nm) of ALP bound to bacteria: 1.9

## O=C[C@@H](O)[C@H](O)[C@@H](O)[C@H](O)C(=O)O [Iduronic acid]
S. faec. [2]
  absorbance (405 nm) of ALP bound to bacteria: 2.0
E. coli [3]
  absorbance (405 nm) of ALP bound to bacteria: 1.9

## [Cl-].[Cl-].[Mg+2] [MgCl2]
Bacteria [1]
  O.D. at 405 nm, With ALP: 0.44 O.D.
  O.D. at 405 nm, No ALP: 0.20 O.D.

## C[C@@H](O[C@H]1[C@H](O)[C@@H](CO)OC(O)[C@@H]1N)C(=O)O (some centres unmarked) [Muramic Acid]
S. faec. [2]
  absorbance (405 nm) of ALP bound to bacteria: 2.1
E. coli [3]
  absorbance (405 nm) of ALP bound to bacteria: 1.8

## Chondroitin sulfate A
S. faec. [2]
  absorbance (405 nm) of ALP bound to bacteria: 1.3
E. coli [3]
  absorbance (405 nm) of ALP bound to bacteria: 1.1

## Chondroitin sulfate B
S. faec. [2]
  absorbance (405 nm) of ALP bound to bacteria: 0.5
E. coli [3]
  absorbance (405 nm) of ALP bound to bacteria: 0.9

## Concanavalin A
S. faec. [2]
  absorbance (405 nm) of ALP bound to bacteria: 0.1
E. coli [3]
  absorbance (405 nm) of ALP bound to bacteria: 0.0

## Hemoglobin [reference compound]
Bacteria [4]
  inhibition of the binding of ALP by bacteria (in words): did not inhibit the binding of ALP
S. faec. [5]
  inhibition of the binding of ALP by bacteria: <20%
E. coli [6]
  inhibition of the binding of ALP by bacteria: <20%

## Hyaluronic Acid
S. faec. [2]
  absorbance (405 nm) of ALP bound to bacteria: 2.0
E. coli [3]
  absorbance (405 nm) of ALP bound to bacteria: 1.8

## Tamm-Horsfall protein (THP): glycated protein with one high-mannose and five complex or hybrid type chains
S. faec. [5]
  inhibition of the binding of ALP by bacteria: 49%
E. coli [6]
  inhibition of the binding of ALP by bacteria: 40%

## Transferrin: glycated protein, simple carbohydrates
S. faec. [5]
  inhibition of the binding of ALP by bacteria: 75%
E. coli [6]
  inhibition of the binding of ALP by bacteria: 75%

## polyarginine [reference compound]
Bacteria [4]
  inhibition of the binding of ALP by bacteria (in words): not found to inhibit ALP activity

## polyhistidine [reference compound]
Bacteria [4]
  inhibition of the binding of ALP by bacteria (in words): not found to inhibit ALP activity

## polylysine [reference compound]
Bacteria [4]
  inhibition of the binding of ALP by bacteria (in words): not found to inhibit ALP activity

## α-1-Antitrypsin: glycated protein as received from suppliers
S. faec. [5]
  inhibition of the binding of ALP by bacteria: 74%
E. coli [6]
  inhibition of the binding of ALP by bacteria: 84%

## α-1-glycoprotein (AGP): glycated protein with five complex or hybrid type chains
Bacteria [4]; from complete inhibition of ALP binding
  binding to bacteria compared with ALP: better binders than ALP
S. faec. [5]
  inhibition of the binding of ALP by bacteria: >90%
E. coli [6]
  inhibition of the binding of ALP by bacteria: 86%

B1: beta-2-Glycoprotein: glycoprotein with one N-link complex type chain (protein, UniProt P02749 20-345, looked up)
Beta-2-glycoprotein 1: GRTCPKPDDLPFSTVVPLKTFYEPGEEITYSCKPGYVSRGGMRKFICPLTGLWPINTLKCTPRVCPFAGILENGAVRYTTFEYPNTISFSCNTGFYLNGADSAKCTEEGKWSPELPVCAPIICPPPSIPTFATLRVYKPSAGNNSLYRDTAVFECLPQHAMFGNDTITCTTHGNWTKLPECREVKCPFPSRPDNGFVNYPAKPTLYYKDKATFGCHDGYSLDGPEEIECTKLGNWSAMPSCKASCKVPVKKATVVYQGERVKIQEKFKNGMLHGDKVSFFCKNKEKKCSYTEDAQCIDGTIEVPKCFKEHSSLAFWKTDASDVKPC
S. faec. [5]
  inhibition of the binding of ALP by bacteria: 61%
E. coli [6]
  inhibition of the binding of ALP by bacteria: 74%
